In the first experiment the test system is LoVo. The experiment in a line: Antiproliferative activity against human LoVo cells by WST-1 assay. The experiment is classed as functional, cell-based. On the technique in general: Tetrazolium dyes change colour on reduction, which living cells bring about.
A word on the IC50: it is the concentration at which inhibition is half-maximal. High values mean lower potency, low ones higher potency. On to `Cc1ccc2nc(SCC(=O)N/N=C3\C(=O)Nc4ccc([N+](=O)[O-])cc43)n(Cc3ccccc3)c(=O)c2c1`, for which the IC50 is 9.91 to 17.9 µM.
On to `O=C(CSc1nc2ccccc2c(=O)n1CCc1ccccc1)N/N=C1\C(=O)Nc2ccc(F)cc21`, for which the IC50 is 9.91 to 17.9 µM.
Regarding `Cc1ccc2nc(SCC(=O)N/N=C3\C(=O)Nc4ccc(Cl)cc43)n(-c3ccccc3)c(=O)c2c1`, the IC50 lay in the range of 9.91 to 17.9 µM.
On to `Cc1ccc2nc(SCC(=O)N/N=C3\C(=O)Nc4ccccc43)n(-c3ccccc3)c(=O)c2c1`, for which the IC50 is 9.91 to 17.9 µM.
The same measure, in the same setting: with `O=C(CSc1nc2ccccc2c(=O)n1-c1ccccc1)N/N=C1\C(=O)Nc2ccc(Cl)cc21` the figure was 9.91 to 17.9 µM; with `Cc1ccc2nc(SCC(=O)N/N=C3\C(=O)Nc4ccc([N+](=O)[O-])cc43)n(-c3ccccc3)c(=O)c2c1`, 9.91 to 17.9 µM.
On the same count and under the same terms, under `Cc1ccc2nc(SCC(=O)N/N=C3\C(=O)Nc4ccc(F)cc43)n(Cc3ccccc3)c(=O)c2c1` stands 9.91 to 17.9 µM; under `O=C(CSc1nc2ccccc2c(=O)n1CCc1ccccc1)N/N=C1\C(=O)Nc2ccccc21`, 9.91 to 17.9 µM.
Regarding `O=C(CSc1nc2ccccc2c(=O)n1-c1ccccc1)N/N=C1\C(=O)Nc2ccc([N+](=O)[O-])cc21`, the IC50 lay within 9.91 to 17.9 µM.
In turn, `Cc1ccc2nc(SCC(=O)N/N=C3\C(=O)Nc4ccc(Cl)cc43)n(Cc3ccccc3)c(=O)c2c1` gave an IC50 of 9.91 to 17.9 µM.
Still for that read-out and setting: under `Cc1ccc2nc(SCC(=O)N/N=C3\C(=O)Nc4ccccc43)n(Cc3ccccc3)c(=O)c2c1` stands 9.91 to 17.9 µM.
On the same count and under the same terms, under `Cc1ccc2nc(SCC(=O)N/N=C3\C(=O)Nc4ccc(F)cc43)n(-c3ccccc3)c(=O)c2c1` stands 9.91 to 17.9 µM; under `O=C(CSc1nc2ccccc2c(=O)n1CCc1ccccc1)N/N=C1\C(=O)Nc2ccc(Cl)cc21`, 9.91 to 17.9 µM; under `O=C(CSc1nc2ccccc2c(=O)n1Cc1ccccc1)N/N=C1\C(=O)Nc2ccc([N+](=O)[O-])cc21`, 9.91 to 17.9 µM.

The target in another experiment is Histone deacetylase. The experiment in a line: Inhibition of HDAC (unknown origin). The experiment is classed as protein assay, Homo sapiens.
With `O=C(CNC(=S)N/N=C1\C(=O)Nc2ccc(Cl)cc21)NO`, the IC50 came to 0.97 µM.
